One test concerns the target T1, E. coli MTAN (Escherichia coli, UniProt P0AF12).
T1 construct: made in house
Briefly: Inhibition constants with E. coli MTAN (xanthine oxidase-coupled assay). Conditions: 25° C., pH 7.5, MTA as substrate. It is filed as biochemical. On the procedure: (§1) E. coli MTAN and human MTAP were obtained according to the reported methods (Singh, et al, Biochemistry 44, 11647-11659 (2005); Singh and Schramm J. Am. Chem. Soc. 128, 14691-14696 (2006). The MTAN gene sequences from N. meningitides MC58 and H. pylori J99 were amplified from genomic DNA (ATCC) and cloned into a modified pET-32 vector to direct high-level expression of MTAN with a non-cleavable N-terminal 6His tag. 1.5 L cultures of BL21(DE3) harbouring MTAN constructs were induced with 0.5 mM IPTG for 20 hours at 25° C. with vigorous shaking. Cell pellets were washed and lysed in 40 mL lysis buffer (25 mM HEPES, 0.5M NaCl, 10 mM imidazole pH 7.6, protease inhibitors and 0.25 mM TCEP) with the use of a cell disrupter at 15K psi. After removal of cell debris by centrifugation, the soluble cell lysates were loaded onto nickel-charged chelating sepharose (GE Healthcare) and washed with lysis buffer containing 20-150 mM imidazole. The 6His-MTANs were eluted in 250 mM imidazole, desalted using a Sephadex G-15 (GE Healthcare) gel filtration column, equilibrated with low salt buffer (100 mM HEPES, 30 mM KCL, pH 7.6) and concentrated to 40 mg/mL.
(§2) Inhibitor concentrations were obtained from the absorbance at 274 nm with extinction coefficient of 8.5 mM^−1 cm^−1 for 9-deazaadenine moiety.
(§3) MTAN activities were assayed as reported previously (Singh et al (2006) Biochemistry 45, 12929-12941; Singh, et al (2005) J. Biol. Chem. 280, 18265-18273). Briefly, all experiments were carried out at 25° C., in 1 mL total reaction volume containing 100 mM HEPES buffer, pH 7.5 and 50 mM KCl with 5′-deoxymethylthioadenosine (MTA) as substrate. Kinetic constants (kcat and Km) were determined by monitoring MTA hydrolysis at 274 nm where ΔεMTA=1.6 mM^−1 cm^−1. For measuring dissociation constant (Kd) of inhibitors, a xanthine oxidase-coupled assay was carried out. In this assay, saturating levels (1-2 mM) of MTA and various concentrations of inhibitor were mixed with xanthine oxidase (0.5 unit/mL), which is used to convert the MTAN product adenine to 2,8-dihydroxyadenine (ε2,8-dihydroxadenine=15.2 mM^−1 cm^−1 at 293 nm). Reactions were initiated by the addition of 8-10 nM MTAN, and the absorbance at 293 was monitored. Control experiments were carried out in the absence of either inhibitor or MTAN.
(§4) [formula] where vs′ and vs are steady state rates in the presence, and absence of inhibitor, respectively; Km is substrate Michaelis constant which was obtained as described above; [S] and [I] are the concentrations of the substrate MTA and inhibitor, respectively. […] All data fitting was carried out with KaleidaGraph™ ver. 3.5 (Synergy Software).

A further test addresses T2, human MTAP (Homo sapiens, UniProt Q13126).
T2 construct: made in house
T2 sequence (Q13126 1-283): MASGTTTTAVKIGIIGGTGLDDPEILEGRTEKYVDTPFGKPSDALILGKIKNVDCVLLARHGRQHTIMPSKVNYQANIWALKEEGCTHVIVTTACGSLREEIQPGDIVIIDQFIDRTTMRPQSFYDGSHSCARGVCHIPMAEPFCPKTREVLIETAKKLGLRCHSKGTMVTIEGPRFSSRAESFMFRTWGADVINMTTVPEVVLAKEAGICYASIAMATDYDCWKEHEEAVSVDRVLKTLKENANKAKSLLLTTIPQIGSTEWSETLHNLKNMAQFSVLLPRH
Briefly: Inhibition constants with MTAP (continuous spectrophotometric assay). It is filed as biochemical. As for the experimental part: After removal of cell debris by centrifugation, the soluble cell lysates were loaded onto nickel-charged chelating sepharose (GE Healthcare) and washed with lysis buffer containing 20-150 mM imidazole. The 6His-MTANs were eluted in 250 mM imidazole, desalted using a Sephadex G-15 (GE Healthcare) gel filtration column, equilibrated with low salt buffer (100 mM HEPES, 30 mM KCL, pH 7.6) and concentrated to 40 mg/mL.
Continuous spectrophotometric assays were used to characterize the inhibitors of the invention and […] inhibition of MTAP.

In another test the target is N. meningitides MTAN (Neisseria meningitidis, UniProt Q9K054). Briefly: Inhibition constants with N. meningitides MTAN (xanthine oxidase-coupled assay). Conditions: 25° C., pH 7.5, MTA as substrate. Format: biochemical, N. meningitides MC58. As for the experimental part:
as §1, §2, §3, §4

T1 sequence (P0AF12 whole entry): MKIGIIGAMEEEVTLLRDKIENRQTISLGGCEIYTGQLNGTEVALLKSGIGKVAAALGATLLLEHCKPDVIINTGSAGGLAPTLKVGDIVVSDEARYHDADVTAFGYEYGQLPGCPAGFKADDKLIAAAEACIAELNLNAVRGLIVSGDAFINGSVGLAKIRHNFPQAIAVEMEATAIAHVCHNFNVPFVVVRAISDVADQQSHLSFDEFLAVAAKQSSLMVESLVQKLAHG
Sequence of N. meningitides MTAN (Q9K054 entry or part of it): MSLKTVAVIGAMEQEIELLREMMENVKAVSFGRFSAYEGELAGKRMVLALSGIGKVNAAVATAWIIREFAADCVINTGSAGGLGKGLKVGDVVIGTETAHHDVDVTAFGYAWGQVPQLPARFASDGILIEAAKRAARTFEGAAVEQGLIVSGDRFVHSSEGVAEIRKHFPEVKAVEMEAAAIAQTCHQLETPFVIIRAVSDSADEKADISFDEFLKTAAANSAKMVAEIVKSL

By Kd is commonly meant the constant that tells how readily two partners part at equilibrium. Turning to `CSCC(CO)(CO)NCc1c[nH]c2c(N)ncnc12` [Example 1, 2-((4-amino-5H-pyrrolo[3,2-d]pyrimidin-7-yl)methylamino)-2-(methylthiomethyl)propane-1,3-diol], the equilibrium dissociation constant (Kd) on E. coli MTAN was determined as 5.8 ± 0.8 nM; on human MTAP it was 34 ± 24 nM; on N. meningitides MTAN it was 4 ± 2 nM.

With `CSC[C@@H](O)[C@@H](CO)N(C)Cc1c[nH]c2c(N)ncnc12` [Example 8, (2R,3S)-2-(((4-amino-5H-pyrrolo[3,2-d]pyrimidin-7-yl)methyl)(methyl)amino)-4-(methylthio)butane-1,3-diol], the values for the Kd on E. coli MTAN, on human MTAP and at N. meningitides MTAN were 62 ± 5 nM, 88 ± 21 nM and 19.3 ± 0.3 nM, respectively.

As for `CSC[C@H](O)[C@H](CO)NCc1c[nH]c2c(N)ncnc12` [Example 7, (2S,3R)-2-((4-amino-5H-pyrrolo[3,2-d]pyrimidin-7-yl)methylamino)-4-(methylthio)butane-1,3-diol], at human MTAP, the affinity, expressed as Kd, was 87 ± 11 nM.

For `CSC[C@@H](CNCc1c[nH]c2c(N)ncnc12)[C@@H](O)CO` (racemic) [Example 3, (2RS,3SR)-4-[(4-amino-5H-pyrrolo[3,2-d]pyrimidin-7-yl)methylamino]-3-(methylthiomethyl)butane-1,2-diol], the Kd on E. coli MTAN is 9 ± 2 nM; on N. meningitides MTAN it was 5 ± 1 nM.

Take `CSC[C@@H](O)CNCc1c[nH]c2c(N)ncnc12` [Example 2, (S)-1-((4-amino-5H-pyrrolo[3,2-d]pyrimidin-7-yl)methylamino)-3-(methylthio)propan-2-ol]: the Kd on E. coli MTAN was 4 ± 0.5 nM; at human MTAP, 60 ± 8 nM; on N. meningitides MTAN, 3.6 ± 0.4 nM.

Consider `CSC[C@H](O)[C@@H](CO)CN(C)Cc1c[nH]c2c(N)ncnc12` (racemic) [Example 10, (2RS,3RS)-2-((((4-amino-5H-pyrrolo[3,2-d]pyrimidin-7-yl)methyl)(methyl)amino)methyl)-4-(methylthio)butane-1,3-diol], for which the Kd came to 65 ± 6 nM on E. coli MTAN and 132 ± 9 nM at N. meningitides MTAN.

As to `CSC[C@H](CO)N[C@H](CO)c1c[nH]c2c(N)ncnc12` [Example 12, (S)-2-((S)-1-(4-amino-5H-pyrrolo[3,2-d]pyrimidin-7-yl)-2-hydroxyethylamino)-3-(methylthio)propan-1-ol], the Kd on E. coli MTAN came to 154 ± 15 nM; at human MTAP it was 130 ± 20 nM; at N. meningitides MTAN it was 47 ± 4 nM.

On to `CSC[C@H](O)[C@@H](O)CN(C)Cc1c[nH]c2c(N)ncnc12` [Example 11, (2S,3R)-1-(((4-amino-5H-pyrrolo[3,2-d]pyrimidin-7-yl)methyl)(methyl)amino)-4-(methylthio)butane-2,3-diol], for which, at E. coli MTAN, the Kd came out at 202 ± 35 nM.

For the compound `CSC[C@H](O)[C@@H](CO)CNCc1c[nH]c2c(N)ncnc12` (racemic) [Example 9, (2RS,3RS)-2-{[(4-amino-5H-pyrrolo[3,2-d]pyrimidin-7-yl)methylamino]methyl}-4-(methylthio)butane-1,3-diol], the Kd at E. coli MTAN was determined as 25 ± 2 nM; on human MTAP it was 278 ± 27 nM; at N. meningitides MTAN, 12.8 ± 0.9 nM.

On to `CSC[C@@H](CN(C)Cc1c[nH]c2c(N)ncnc12)[C@@H](O)CO` [Example 4, (2R,3S)-4-(((4-amino-5H-pyrrolo[3,2-d]pyrimidin-7-yl)methyl)(methyl)amino)-3-(methylthiomethyl)butane-1,2-diol], for which the Kd on E. coli MTAN was 2300 ± 600 nM.

For the origin of these results see patent US8383636B2, “Acyclic amine inhibitors of 5-methytioadenosine phosphorylase and nucleosidase” (priority 2006, dated 2013).
